Patent US12371454B2, “Cyclic peptide compound having Kras inhibitory action” (priority 2019, dated 2025)
Positions of bridges follow the written chain, without caps; N, C: chain ends. Non-standard residues stand in square brackets, D forms with d. Residues, ends and D or L forms follow the SMILES beside them. *: point of attachment. hPhe(3-Cl-4-CF3) = N[C@@H](CCc1ccc(C(F)(F)F)c(Cl)c1)C(=O)O; NMePhe(4-CF3) = CN[C@@H](Cc1ccc(C(F)(F)F)cc1)C(=O)O; NMePhe(4-F) = CN[C@@H](Cc1ccc(F)cc1)C(=O)O; NMe3Pal = CN[C@@H](Cc1cccnc1)C(=O)O; NMeCha = CN[C@@H](CC1CCCCC1)C(=O)O; NMeAhp(2) = CCCCC[C@H](NC)C(=O)O; NMeChg = CN[C@H](C(=O)O)C1CCCCC1; NMeF = CN[C@@H](Cc1ccccc1)C(=O)O; NMeI = CC[C@H](C)[C@H](NC)C(=O)O; NMeD = CN[C@@H](CC(=O)O)C(=O)O; dNMeD = CN[C@H](CC(=O)O)C(=O)O; NMeL = CN[C@@H](CC(C)C)C(=O)O; Ahp(2) = CCCCC[C@H](N)C(=O)O; NMeV = CN[C@H](C(=O)O)C(C)C; d(β3hA) = C[C@@H](N)CC(=O)O; NMeAbu = CC[C@H](NC)C(=O)O; NMeS = CN[C@@H](CO)C(=O)O; Morpholide = C1CN(*)CCO1; NMeA = CN[C@@H](C)C(=O)O; Nle = CCCC[C@H](N)C(=O)O; Piperidide = C1CCN(*)CC1; Pyrrolidide = C1CCN(*)C1; dNMeA = CN[C@H](C)C(=O)O; Ac5c = NC1(C(=O)O)CCCC1; Aze = O=C(O)[C@@H]1CCN1; Sar = CNCC(=O)O; Propyl = CCC*

Target: T1, Kras and SOS1 (biotin-tagged human Kras loaded with GDP, His-tagged human SOS1) (Homo sapiens, UniProt P01116, G12D)
T1 construct: made in house; host or cells: E. coli (stated for Kras only)
T1 sequence (P01116 1-188 isoform P01116-2 G12D): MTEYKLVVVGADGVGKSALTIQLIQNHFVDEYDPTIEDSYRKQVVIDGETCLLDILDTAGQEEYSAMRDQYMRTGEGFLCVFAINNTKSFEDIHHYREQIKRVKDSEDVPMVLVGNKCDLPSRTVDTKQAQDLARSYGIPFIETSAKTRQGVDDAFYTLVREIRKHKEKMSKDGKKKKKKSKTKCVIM
Experiment: Protein-protein interaction inhibition between Kras and SOS1 (KrasGl2D-SOS PPI) using AlphaScreen
Assay type: binding
Conditions: AlphaScreen; biotin-tagged human Kras loaded with GDP, His-tagged human SOS1; read-out: KRAS G12D-SOS PPI IC50
In short: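 Kras was produced in E. coli, purified, then loaded with GDP. It was paired via streptavidin acceptor beads with His-SOS1 held on nickel donor beads, and proximity signal at 520-620 nm was read after 680 nm illumination.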

## CC[C@H](C)[C@@H]1NC(=O)[C@H](C)N(C)C(=O)C[C@@H](C)NC(=O)[C@H](C(C)C)N(C)C(=O)C2(CCCC2)NC(=O)[C@@H]2CCCN2C(=O)[C@H](CCc2ccc(C(F)(F)F)c(Cl)c2)NC(=O)[C@H]2CCCN2C(=O)[C@H](Cc2ccc(F)cc2)N(C)C(=O)[C@@H]2CCCN2C(=O)CN(C)C1=O [Compound 1667] (cyclo([Ac5c][NMeV][d(β3hA)][NMeA]I[Sar]P[NMePhe(4-F)][dP][hPhe(3-Cl-4-CF3)]P))
  IC50: 13 nM

## CC[C@H](C)[C@@H]1NC(=O)[C@H](CC(C)C)N(C)C(=O)C[C@@H](C(=O)N2CCCCC2)N(C)C(=O)[C@H](C2CCCCC2)N(C)C(=O)C2(CCCC2)NC(=O)[C@@H]2CCCN2C(=O)[C@H](CCc2ccc(C(F)(F)F)c(Cl)c2)NC(=O)CN(C)C(=O)[C@H](C)N(C)C(=O)CN(C)C(=O)CN(C)C1=O [Compound 1681] ([NMeL]I[Sar][Sar][NMeA][Sar][hPhe(3-Cl-4-CF3)]P[Ac5c][NMeChg][NMeD]-Piperidide; lactam N-11)
  IC50: 3.1 nM

## CC[C@H](C)[C@@H]1NC(=O)[C@H](CC(C)C)N(C)C(=O)C[C@@H](C(=O)N2CCCCC2)N(C)C(=O)[C@H](C2CCCCC2)N(C)C(=O)C2(CCCC2)NC(=O)[C@@H]2CCCN2C(=O)[C@H](CCc2ccc(C(F)(F)F)c(Cl)c2)NC(=O)CN(C)C(=O)[C@H](CO)N(C)C(=O)CN(C)C(=O)CN(C)C1=O [Compound 1687] ([NMeL]I[Sar][Sar][NMeS][Sar][hPhe(3-Cl-4-CF3)]P[Ac5c][NMeChg][NMeD]-Piperidide; lactam N-11)
  IC50: 4.2 nM

## CC[C@H](C)[C@@H]1NC(=O)[C@H](C)N(C)C(=O)C[C@@H](C)NC(=O)[C@H](C2CCCCC2)N(C)C(=O)C2(CCCC2)NC(=O)[C@@H]2CCCN2C(=O)[C@H](CCc2ccc(C(F)(F)F)c(Cl)c2)NC(=O)CN(C)C(=O)[C@H](CC2CCCCC2)N(C)C(=O)CN(C)C(=O)CN(C)C1=O [Compound 1688] (cyclo([Ac5c][NMeChg][d(β3hA)][NMeA]I[Sar][Sar][NMeCha][Sar][hPhe(3-Cl-4-CF3)]P))
  IC50: 24 nM

## CC[C@H](C)[C@@H]1NC(=O)[C@H](C)N(C)C(=O)C[C@@H](C)NC(=O)[C@H](C(C)C)N(C)C(=O)C2(CCCC2)NC(=O)[C@@H]2CCCN2C(=O)[C@H](CCc2ccc(C(F)(F)F)c(Cl)c2)NC(=O)[C@@H](C)N(C)C(=O)[C@H](Cc2ccccc2)N(C)C(=O)CN(C)C(=O)CN(C)C1=O [Compound 1691] (cyclo([Ac5c][NMeV][d(β3hA)][NMeA]I[Sar][Sar][NMeF][dNMeA][hPhe(3-Cl-4-CF3)]P))
  IC50: 120 nM

## CCCCC[C@@H]1NC(=O)[C@H](CC(C)C)N(C)C(=O)C[C@@H](C(=O)N2CCCCC2)N(C)C(=O)[C@H](C2CCCCC2)N(C)C(=O)C2(CCCC2)NC(=O)[C@@H]2CCCN2C(=O)[C@H](CCc2ccc(C(F)(F)F)c(Cl)c2)NC(=O)CN(C)C(=O)[C@H](CC2CCCCC2)N(C)C(=O)CN(C)C(=O)CN(C)C1=O [Compound 1692] ([NMeL][Ahp(2)][Sar][Sar][NMeCha][Sar][hPhe(3-Cl-4-CF3)]P[Ac5c][NMeChg][NMeD]-Piperidide; lactam N-11)
  IC50: 3.5 nM

## CC[C@H](C)[C@@H]1NC(=O)[C@H](C)N(C)C(=O)C[C@@H](C(=O)N2CCCCC2)N(C)C(=O)[C@H](C(C)C)N(C)C(=O)C2(CCCC2)NC(=O)[C@@H]2CCCN2C(=O)[C@H](CCc2ccc(C(F)(F)F)c(Cl)c2)NC(=O)CN(C)C(=O)[C@H](Cc2ccc(F)cc2)N(C)C(=O)[C@@H]2CCCN2C(=O)CN(C)C1=O [Compound 1698] ([NMeA]I[Sar]P[NMePhe(4-F)][Sar][hPhe(3-Cl-4-CF3)]P[Ac5c][NMeV][NMeD]-Piperidide; lactam N-11)
  IC50: 1.2 nM

## CC[C@H](C)[C@@H]1NC(=O)[C@H](C)N(C)C(=O)C[C@@H](C(=O)N2CCOCC2)N(C)C(=O)[C@H](C2CCCCC2)N(C)C(=O)C2(CCCC2)NC(=O)[C@H](Cc2cccnc2)N(C)C(=O)[C@H](CCc2ccc(C(F)(F)F)c(Cl)c2)NC(=O)CN(C)C(=O)[C@H](CC2CCCCC2)N(C)C(=O)[C@@H]2CCN2C(=O)CN(C)C1=O [Compound 1703] ([NMeA]I[Sar][Aze][NMeCha][Sar][hPhe(3-Cl-4-CF3)][NMe3Pal][Ac5c][NMeChg][NMeD]-Morpholide; lactam N-11)
  IC50: 0.41 nM

## CC[C@H](C)[C@@H]1NC(=O)[C@H](C)N(C)C(=O)C[C@@H](C(=O)N2CCCC2)N(C)C(=O)[C@H](C(C)C)N(C)C(=O)C2(CCCC2)NC(=O)[C@@H]2CCCN2C(=O)[C@H](CCc2ccc(C(F)(F)F)c(Cl)c2)NC(=O)[C@@H](C)N(C)C(=O)[C@H](CC2CCCCC2)N(C)C(=O)[C@@H]2CCCN2C(=O)CN(C)C1=O [Compound 1715] ([NMeA]I[Sar]P[NMeCha][dNMeA][hPhe(3-Cl-4-CF3)]P[Ac5c][NMeV][NMeD]-Pyrrolidide; lactam N-11)
  IC50: 2.4 nM

## CCCCC[C@H]1C(=O)N(C)[C@H](C(=O)N2CCCCC2)CC(=O)N(C)[C@@H](CC(C)C)C(=O)N[C@@H]([C@@H](C)CC)C(=O)N(C)CC(=O)N(C)CC(=O)N(C)[C@@H](CC2CCCCC2)C(=O)N(C)CC(=O)N[C@@H](CCc2ccc(C(F)(F)F)c(Cl)c2)C(=O)N2CCC[C@H]2C(=O)NC2(CCCC2)C(=O)N1C [Compound 1719] ([NMeL]I[Sar][Sar][NMeCha][Sar][hPhe(3-Cl-4-CF3)]P[Ac5c][NMeAhp(2)][NMeD]-Piperidide; lactam N-11)
  IC50: 18 nM

## CCCC[C@@H]1NC(=O)[C@H](CC(C)C)N(C)C(=O)C[C@@H](C(=O)N2CCCCC2)N(C)C(=O)[C@H](C2CCCCC2)N(C)C(=O)C2(CCCC2)NC(=O)[C@@H]2CCCN2C(=O)[C@H](CCc2ccc(C(F)(F)F)c(Cl)c2)NC(=O)CN(C)C(=O)[C@H](CC2CCCCC2)N(C)C(=O)CN(C)C(=O)CN(C)C1=O [Compound 1723] ([NMeL][Nle][Sar][Sar][NMeCha][Sar][hPhe(3-Cl-4-CF3)]P[Ac5c][NMeChg][NMeD]-Piperidide; lactam N-11)
  IC50: 3.6 nM

## CC[C@H](C)[C@@H]1NC(=O)[C@H](C)N(C)C(=O)C[C@@H](C(=O)N2CCCCC2)N(C)C(=O)[C@H](C(C)C)N(C)C(=O)C2(CCCC2)NC(=O)[C@@H]2CCCN2C(=O)[C@H](CCc2ccc(C(F)(F)F)c(Cl)c2)NC(=O)[C@H]2CCCN2C(=O)[C@H](Cc2ccc(F)cc2)N(C)C(=O)[C@@H]2CCCN2C(=O)CN(C)C1=O [Compound 1725] ([NMeA]I[Sar]P[NMePhe(4-F)][dP][hPhe(3-Cl-4-CF3)]P[Ac5c][NMeV][NMeD]-Piperidide; lactam N-11)
  IC50: 23 nM

## CC[C@H](C)[C@@H]1NC(=O)[C@H](C)N(C)C(=O)C[C@@H](C)NC(=O)[C@H](C(C)C)N(C)C(=O)C2(CCCC2)NC(=O)[C@@H]2CCCN2C(=O)[C@H](CCc2ccc(C(F)(F)F)c(Cl)c2)NC(=O)[C@H]2CCCN2C(=O)[C@H](Cc2ccccc2)N(C)C(=O)[C@@H]2CCCN2C(=O)CN(C)C1=O [Compound 1730] (cyclo([Ac5c][NMeV][d(β3hA)][NMeA]I[Sar]P[NMeF][dP][hPhe(3-Cl-4-CF3)]P))
  IC50: 35 nM

## CC[C@H](C)[C@@H]1NC(=O)[C@H](C)N(C)C(=O)C[C@@H](C)NC(=O)[C@H](C(C)C)N(C)C(=O)C2(CCCC2)NC(=O)[C@@H]2CCCN2C(=O)[C@H](CCc2ccc(C(F)(F)F)c(Cl)c2)NC(=O)CN(C)C(=O)[C@H](Cc2ccc(F)cc2)N(C)C(=O)[C@@H]2CCCN2C(=O)CN(C)C1=O [Compound 1732] (cyclo([Ac5c][NMeV][d(β3hA)][NMeA]I[Sar]P[NMePhe(4-F)][Sar][hPhe(3-Cl-4-CF3)]P))
  IC50: 5.5 nM

## CC[C@H](C)[C@@H]1NC(=O)[C@H](CC(C)C)N(C)C(=O)C[C@H](C(=O)N2CCCC2)N(C)C(=O)[C@H]([C@@H](C)CC)N(C)C(=O)C2(CCCC2)NC(=O)[C@@H]2CCCN2C(=O)[C@H](CCc2ccc(C(F)(F)F)c(Cl)c2)NC(=O)CN(C)C(=O)[C@H](Cc2ccc(C(F)(F)F)cc2)N(C)C(=O)[C@@H]2CCN2C(=O)[C@H](C)N(C)C1=O [Compound 1734] ([NMeL]I[NMeA][Aze][NMePhe(4-CF3)][Sar][hPhe(3-Cl-4-CF3)]P[Ac5c][NMeI][dNMeD]-Pyrrolidide; lactam N-11)
  IC50: 71 nM

## CCCOC[C@@H]1NC(=O)[C@H](CC(C)C)N(C)C(=O)C[C@@H](C(=O)N2CCCCC2)N(C)C(=O)[C@H](C2CCCCC2)N(C)C(=O)C2(CCCC2)NC(=O)[C@@H]2CCCN2C(=O)[C@H](CCc2ccc(C(F)(F)F)c(Cl)c2)NC(=O)CN(C)C(=O)[C@H](CC2CCCCC2)N(C)C(=O)CN(C)C(=O)CN(C)C1=O [Compound 1736] ([NMeL]S(Propyl)[Sar][Sar][NMeCha][Sar][hPhe(3-Cl-4-CF3)]P[Ac5c][NMeChg][NMeD]-Piperidide; lactam N-11)
  IC50: 4.3 nM

## CC[C@H](C)[C@@H]1NC(=O)[C@H](CC(C)C)N(C)C(=O)C[C@@H](C(=O)N2CCCCC2)N(C)C(=O)[C@H](CC)N(C)C(=O)C2(CCCC2)NC(=O)[C@@H]2CCCN2C(=O)[C@H](CCc2ccc(C(F)(F)F)c(Cl)c2)NC(=O)CN(C)C(=O)[C@H](CC2CCCCC2)N(C)C(=O)CN(C)C(=O)CN(C)C1=O [Compound 1741] ([NMeL]I[Sar][Sar][NMeCha][Sar][hPhe(3-Cl-4-CF3)]P[Ac5c][NMeAbu][NMeD]-Piperidide; lactam N-11)
  IC50: 3.8 nM

## CC[C@H](C)[C@@H]1NC(=O)[C@H](CC(C)C)N(C)C(=O)C[C@@H](C(=O)N2CCCCC2)N(C)C(=O)[C@H](C2CCCCC2)N(C)C(=O)C2(CCCC2)NC(=O)[C@@H]2CCCN2C(=O)[C@H](CCc2ccc(C(F)(F)F)c(Cl)c2)NC(=O)CN(C)C(=O)[C@H](CC)N(C)C(=O)CN(C)C(=O)CN(C)C1=O [Compound 1743] ([NMeL]I[Sar][Sar][NMeAbu][Sar][hPhe(3-Cl-4-CF3)]P[Ac5c][NMeChg][NMeD]-Piperidide; lactam N-11)
  IC50: 1.3 nM

## CC[C@H](C)[C@@H]1NC(=O)[C@H](C)N(C)C(=O)C[C@@H](C(=O)N2CCCCC2)N(C)C(=O)[C@H](C(C)C)N(C)C(=O)C2(CCCC2)NC(=O)[C@@H]2CCCN2C(=O)[C@H](CCc2ccc(C(F)(F)F)c(Cl)c2)NC(=O)CN(C)C(=O)[C@H](Cc2ccccc2)N(C)C(=O)[C@@H]2CCCN2C(=O)CN(C)C1=O [Compound 1753] ([NMeA]I[Sar]P[NMeF][Sar][hPhe(3-Cl-4-CF3)]P[Ac5c][NMeV][NMeD]-Piperidide; lactam N-11)
  IC50: 2.5 nM
